Series [1] can be described thus: Cytotoxicity against human D423 cells with ENO1 deficient assessed as reduction in cell viability incubated for 5 days by crystal violet staining based spectrophotometry. To be noted: 120 h.
Series [2] can be described thus: Cytotoxicity against human D423 cells with ENO1 deficient assessed as reduction in cell viability incubated for 5 days in presence of 21 % oxygen by crystal violet staining based spectrophotometry. To be noted: 120 h.
Series [3] is described as follows: Cytotoxicity against human D423 cells with ENO1 deficient assessed as reduction in cell viability incubated for 5 days in presence of 1 % oxygen by crystal violet staining based spectrophotometry. To be noted: 120 h.
Series [4] is described as follows: Stability in human plasma assessed as formation of monoester metabolite measured upto 22 hrs by NMR analysis. Format: ADME, cell-free.
A short description of series [5]: Stability in human plasma assessed as formation of monoester metabolite measured at less than 30 mins by NMR analysis. Format: ADME, cell-free. To be noted: 0.5 h.

With `O=C1C(P(=O)(O)O)CCCN1O` (stereo unspecified), the concentration for half-maximal inhibition (IC50) (usually the concentration that inhibits the measured activity by half) in series [1] was 11800 nM.
Take `CC(=O)ON1CCCC(P(=O)(NCc2ccccc2)OCc2ccc([N+](=O)[O-])o2)C1=O` (stereo unspecified): the IC50 in series [2] stood at 299 nM; in series [3], 136 nM. Moreover, in series [4], the Stability result is “Stable”.
For the compound `CC(C)(C)C(=O)OCOP(=O)(OCOC(=O)C(C)(C)C)C1CCCN(O)C1=O` (stereo unspecified), the IC50 in series [1] was 38 nM; in series [2], 79 nM; in series [3], 201 nM. Further, in series [5], the Stability result is on record as “Unstable”.
With `CC(C)(C)C(=O)OCOP(=O)(NCc1ccccc1)C1CCCN(O)C1=O` (stereo unspecified), the IC50 in series [1] turned out to be 98 nM.
Consider `Cn1c(COP(=O)(NCCBr)NCCBr)cnc1[N+](=O)[O-]` [EVOFOSFAMIDE], for which the IC50 in series [2] was found to be 3200 nM; in series [3], 404 nM.

The values are drawn from ChEMBL document CHEMBL4619798, “Bioreducible Phosphonoamidate Pro-drug Inhibitor of Enolase: Proof of Concept Study” (ACS Med Chem Lett, 2020).
